Results: ChEMBL document CHEMBL1201862, “PubChem BioAssay data set” (2004)
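Dose response: 5 concentrations. Exposure: 48 h. Format: 96-well plates. Endpoint: linear interpolation; highest concentration if not reached. GI50 is the concentration that inhibits growth by half.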 The source made the active and inactive calls. Rule as the data show it: active = GI50 up to about 1.1 µM and inactive = higher.

What was measured:
Test in all cases: NCI-60 cell line screen, 48 h
[1] = test system: UACC-62
[2] = test system: NCI-H23
[3] = test system: SF-539
[4] = test system: OVCAR-8
[5] = test system: SF-295
[6] = test system: HOP-62
[7] = test system: NCI/ADR-RES
[8] = test system: HCT-15
[9] = test system: A498
[10] = test system: IGROV-1
[11] = test system: BT-549
[12] = test system: LOX IMVI
[13] = test system: SK-OV-3
[14] = test system: K562
[15] = test system: SK-MEL-2
[16] = test system: CAKI-1
[17] = test system: 786-0
[18] = test system: KM12
[19] = test system: M14
[20] = test system: U-251
[21] = test system: COLO 205
[22] = test system: HCC 2998
[23] = test system: SW-620
[24] = test system: RXF 393
[25] = test system: A549
[26] = test system: OVCAR-3
[27] = test system: ACHN
[28] = test system: SF-268
[29] = test system: NCI-H522
[30] = test system: MCF7
[31] = test system: OVCAR-5
[32] = test system: UO-31
[33] = test system: UACC-257
[34] = test system: SK-MEL-28
[35] = test system: TK-10
[36] = test system: Malme-3M
[37] = test system: SK-MEL-5
[38] = test system: EKVX
[39] = test system: OVCAR-4
[40] = test system: SNB-75
[41] = test system: SN12C
[42] = test system: RPMI-8226
[43] = test system: NCI-H460
[44] = test system: SNB-19
[45] = test system: PC-3
[46] = test system: HOP-92
[47] = test system: NCI-H226
[48] = test system: MDA-MB-231
[49] = test system: HCT-116
[50] = test system: T47D
[51] = test system: Hs-578T
[52] = test system: MDA-MB-435
[53] = test system: HT-29
[54] = test system: MDA-N
[55] = test system: HL-60
[56] = test system: MOLT-4
[57] = test system: CCRF-CEM
[58] = test system: DU-145
[59] = test system: SR

N#CSCc1cccc(Nc2cc(=O)[nH]c(=O)[nH]2)c1
GI50 [1]: 26.7 µM (inactive)
GI50 [2]: > 100 µM (inactive)
GI50 [3]: 33 µM (inactive)
GI50 [4]: 72.1 µM (inactive)
GI50 [5]: > 100 µM (inactive)
GI50 [6]: > 100 µM (inactive)
GI50 [7]: > 100 µM (inactive)
GI50 [8]: 56.6 µM
GI50 [9]: > 100 µM (inactive)
GI50 [10]: > 100 µM (inactive)
GI50 [11]: 38 µM (inactive)
GI50 [12]: 92.3 µM (inactive)
GI50 [13]: > 100 µM (inactive)
GI50 [14]: 30.5 µM (inactive)
GI50 [15]: > 100 µM (inactive)
GI50 [16]: > 100 µM (inactive)
GI50 [17]: > 100 µM (inactive)
GI50 [18]: 97.1 µM (inactive)
GI50 [19]: 52 µM (inactive)
GI50 [20]: 94.4 µM (inactive)
GI50 [21]: 37.2 µM (inactive)
GI50 [22]: 43.3 µM (inactive)
GI50 [23]: 55.6 µM (inactive)
GI50 [24]: > 100 µM (inactive)
GI50 [25]: > 100 µM (inactive)
GI50 [26]: 54.7 µM (inactive)
GI50 [27]: > 100 µM (inactive)
GI50 [28]: 28.8 µM (inactive)
GI50 [29]: 39.7 µM (inactive)
GI50 [30]: 7.23 µM (inactive)
GI50 [31]: > 100 µM (inactive)
GI50 [32]: > 100 µM (inactive)
GI50 [33]: 85.1 µM (inactive)
GI50 [34]: 57.8 µM (inactive)
GI50 [35]: > 100 µM (inactive)
GI50 [36]: 31.8 µM (inactive)
GI50 [37]: 26.9 µM (inactive)
GI50 [38]: > 100 µM (inactive)
GI50 [39]: 31.3 µM (inactive)
GI50 [40]: > 100 µM (inactive)
GI50 [41]: > 100 µM (inactive)
GI50 [42]: 47.9 µM (inactive)
GI50 [43]: > 100 µM (inactive)
GI50 [44]: > 100 µM (inactive)
GI50 [45]: > 100 µM (inactive)
GI50 [46]: 14.8 µM (inactive)
GI50 [47]: 48.3 µM (inactive)
GI50 [48]: > 100 µM (inactive)
GI50 [49]: 40.6 µM (inactive)
GI50 [50]: > 100 µM (inactive)
GI50 [51]: 46.8 µM (inactive)
GI50 [52]: > 100 µM (inactive)
GI50 [53]: 37.2 µM (inactive)
GI50 [54]: 52.4 µM (inactive)

O=c1[nH]c2ccc(O)cc2o1
GI50 [1]: > 100 µM (inactive)
GI50 [55]: > 100 µM (inactive)
GI50 [2]: > 100 µM (inactive)
GI50 [3]: > 100 µM (inactive)
GI50 [4]: > 100 µM (inactive)
GI50 [5]: > 100 µM (inactive)
GI50 [6]: > 100 µM (inactive)
GI50 [7]: > 100 µM (inactive)
GI50 [8]: > 100 µM
GI50 [9]: > 100 µM (inactive)
GI50 [10]: > 100 µM (inactive)
GI50 [11]: > 100 µM (inactive)
GI50 [13]: > 100 µM (inactive)
GI50 [56]: > 100 µM (inactive)
GI50 [14]: > 100 µM (inactive)
GI50 [57]: > 100 µM (inactive)
GI50 [16]: > 100 µM (inactive)
GI50 [17]: > 100 µM (inactive)
GI50 [18]: > 100 µM (inactive)
GI50 [58]: > 100 µM (inactive)
GI50 [19]: > 100 µM (inactive)
GI50 [20]: > 100 µM (inactive)
GI50 [21]: > 100 µM (inactive)
GI50 [22]: 2.56 µM (inactive)
GI50 [23]: > 100 µM (inactive)
GI50 [24]: 2.49 µM (inactive)
GI50 [25]: > 100 µM (inactive)
GI50 [26]: > 100 µM (inactive)
GI50 [27]: > 100 µM (inactive)
GI50 [28]: > 100 µM (inactive)
GI50 [29]: > 100 µM (inactive)
GI50 [30]: > 100 µM (inactive)
GI50 [31]: > 100 µM (inactive)
GI50 [32]: > 100 µM (inactive)
GI50 [33]: > 100 µM (inactive)
GI50 [34]: > 100 µM (inactive)
GI50 [35]: > 100 µM (inactive)
GI50 [36]: 0.601 µM (active)
GI50 [37]: > 100 µM (inactive)
GI50 [38]: > 100 µM (inactive)
GI50 [39]: > 100 µM (inactive)
GI50 [40]: 42.7 µM (inactive)
GI50 [41]: > 100 µM (inactive)
GI50 [43]: > 100 µM (inactive)
GI50 [44]: > 100 µM (inactive)
GI50 [45]: > 100 µM (inactive)
GI50 [59]: > 100 µM (inactive)
GI50 [47]: > 100 µM (inactive)
GI50 [48]: > 100 µM (inactive)
GI50 [49]: > 100 µM (inactive)
GI50 [50]: > 100 µM (inactive)
GI50 [51]: > 100 µM (inactive)
GI50 [53]: > 100 µM (inactive)
GI50 [54]: > 100 µM (inactive)

O=C([O-])Cc1ccccc1.[Na+] [SODIUM PHENYLACETATE]
GI50 [1]: 1370 µM (inactive)
GI50 [2]: > 2000 µM (inactive)
GI50 [3]: > 2000 µM (inactive)
GI50 [4]: 611 µM (inactive)
GI50 [5]: 843 µM (inactive)
GI50 [6]: 200 µM (inactive)
GI50 [7]: 540 µM (inactive)
GI50 [8]: 703 µM
GI50 [9]: 519 µM (inactive)
GI50 [10]: 597 µM (inactive)
GI50 [11]: 723 µM (inactive)
GI50 [12]: 1160 µM (inactive)
GI50 [13]: > 2000 µM (inactive)
GI50 [56]: 289 µM (inactive)
GI50 [14]: 284 µM (inactive)
GI50 [57]: 671 µM (inactive)
GI50 [15]: > 2000 µM (inactive)
GI50 [17]: 1070 µM (inactive)
GI50 [18]: 773 µM (inactive)
GI50 [19]: > 2000 µM (inactive)
GI50 [20]: 729 µM (inactive)
GI50 [21]: 1340 µM (inactive)
GI50 [22]: 1210 µM (inactive)
GI50 [23]: 804 µM (inactive)
GI50 [24]: 582 µM (inactive)
GI50 [25]: 1410 µM (inactive)
GI50 [26]: 550 µM (inactive)
GI50 [27]: 1180 µM (inactive)
GI50 [28]: 1340 µM (inactive)
GI50 [29]: 618 µM (inactive)
GI50 [30]: > 2000 µM (inactive)
GI50 [31]: > 2000 µM (inactive)
GI50 [32]: 929 µM (inactive)
GI50 [33]: > 2000 µM (inactive)
GI50 [34]: 800 µM (inactive)
GI50 [35]: 1130 µM (inactive)
GI50 [36]: 706 µM (inactive)
GI50 [37]: 869 µM (inactive)
GI50 [38]: > 2000 µM (inactive)
GI50 [39]: 255 µM (inactive)
GI50 [40]: 776 µM (inactive)
GI50 [41]: 23.9 µM (inactive)
GI50 [42]: 413 µM (inactive)
GI50 [43]: 342 µM (inactive)
GI50 [44]: > 2000 µM (inactive)
GI50 [45]: > 2000 µM (inactive)
GI50 [59]: 200 µM (inactive)
GI50 [46]: 359 µM (inactive)
GI50 [47]: 447 µM (inactive)
GI50 [48]: 174 µM (inactive)
GI50 [50]: 774 µM (inactive)
GI50 [51]: 385 µM (inactive)
GI50 [52]: 1000 µM (inactive)
GI50 [53]: 931 µM (inactive)
GI50 [54]: 10.6 µM (inactive)
